Assay results taken from patent US10597388B2, “Pyridazinone herbicides” (FMC CORPORATION, priority 2014, dated 2020).

Tests used:
Assay type in all cases: in vivo
[1] = test system: oat, wild (wild oat, Avena fatua); assay: Test C greenhouse herbicide test, postemergence; conditions: for Plant response rating, Oat, Wild: Postemergence
Summary of the method: (§1)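 Visual injury scores (0–100, where 100 means complete control) were assigned 13 to 15 d after postemergence application, by comparison with untreated plants. Treated seedlings stood 2 to 18 cm tall, at the 1- to 4-leaf stage.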

kochia (Kochia scoparia) = assay: Test C greenhouse herbicide test, postemergence; conditions: for Plant response rating, Kochia: Postemergence
Summary of the method: as §1

[2] = test system: waterhemp (common waterhemp, Amaranthus rudis); assay: Test C greenhouse herbicide test, pre- and postemergence
Summary of the method: (§2)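 Seeds sown in loam–sand blend treated preemergence; plants in peat-based medium sprayed postemergence at 2–18 cm (1- to 4-leaf stage); chemicals in non-phytotoxic solvent with surfactant. Greenhouse 13–15 d, then visual rating versus controls on 0–100 scale (0 no effect, 100 complete control).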

[3] = test system: barnyardgrass (Echinochloa crus-galli); assay: as above
Summary of the method: as §2

corn (Zea mays) = assay: as above
Summary of the method: as §2

[4] = test system: lambsquarters (Chenopodium album); assay: as above
Summary of the method: as §2

[5] = test system: johnsongrass (Sorghum halepense); assay: as above
Summary of the method: as §2

[6] = test system: pigweed (Amaranthus retroflexus); assay: as above
Summary of the method: as §2

[7] = test system: wheat (winter wheat, Triticum aestivum); assay: as above
Summary of the method: as §2

[8] = test system: crabgrass, large (large crabgrass, Digitaria sanguinalis); assay: as above
Summary of the method: as §2

[9] = test system: velvetleaf (Abutilon theophrasti); assay: as above
Summary of the method: as §2

[10] = test system: oilseed rape (Brassica napus); assay: as above
Summary of the method: as §2

[11] = test system: nutsedge, yellow (yellow nutsedge, Cyperus esculentus); assay: as above
Summary of the method: as §2

[12] = test system: morningglory (Ipomoea coccinea); assay: as above
Summary of the method: as §2

[13] = test system: blackgrass (Alopecurus myosuroides); assay: as above
Summary of the method: as §2

[14] = test system: foxtail, giant (giant foxtail, Setaria faberii); assay: as above
Summary of the method: as §2

[15] = 125 g ai/ha, scale 0 to 100, 0 is no effect, 100 is complete control
[16] = 250 g ai/ha, scale 0 to 100, 0 no effect, 100 complete control, 13 to 15 d
[17] = postemergence, 62 g ai/ha, scale 0 to 100, 0 no effect, 100 complete control
[18] = Postemergence, 125 g ai/ha, scale 0 to 100, 0 is no effect, 100 is complete control
[19] = Postemergence, 250 g ai/ha, scale 0 to 100, 0 no effect, 100 complete control, 13 to 15 d
[20] = Preemergence, 31 g ai/ha, scale 0 to 100, 0 is no effect, 100 is complete control
[21] = Preemergence, 62 g ai/ha, scale 0 to 100, 0 is no effect, 100 is complete control
[22] = Preemergence, 125 g ai/ha, scale 0 to 100, 0 is no effect, 100 is complete control
[23] = Preemergence, 250 g ai/ha, scale 0 to 100 (0 no effect, 100 complete control)
[24] = Postemergence, 31 g ai/ha, 0 to 100 scale (0 no effect, 100 complete control)

COC(=O)Oc1c(C)nn(C)c(=O)c1-c1c(C)sc2c(C)cc(C)cc12 [Compound 81]
5: Corn plant response rating (corn (Zea mays); [17]) | Plant response rating, Johnsongrass [5, 18] | Plant response rating, Johnsongrass [5, 21] | Johnsongrass plant response rating [5, 17] | Plant response rating, Oilseed Rape [10, 21]
90: Oat, Wild plant response rating [1, 17] | Plant response rating, Waterhemp [2, 22] | Plant response rating, Lambsquarters [4, 21] | Plant response rating, Pigweed [6, 19] | Plant response rating, Crabgrass, Large [8, 20] | Plant response rating, Crabgrass, Large [8, 22] | Plant response rating, Velvetleaf [9, 18] | Plant response rating, Velvetleaf [9, 19] | Plant response rating, Nutsedge, Yellow [11, 18] | Plant response rating, Nutsedge, Yellow [11, 19] | Plant response rating, Morningglory [12, 22] | Plant response rating, Blackgrass [13, 18] | Plant response rating, Blackgrass [13, 19] | Plant response rating, Blackgrass [13, 22] | Blackgrass plant response rating [13, 23] | Plant response rating, Foxtail, Giant [14, 18] | Plant response rating, Foxtail, Giant [14, 19]
100: Waterhemp plant response rating [2, 23] | Plant response rating, Lambsquarters [4, 19] | Pigweed plant response rating [6, 23] | Plant response rating, Morningglory [12, 18] | Morningglory plant response rating [12, 17] | Foxtail, Giant plant response rating [14, 23]
10: Plant response rating, Corn (corn (Zea mays); [18]) | Plant response rating, Corn (corn (Zea mays); [21])
25: Barnyardgrass plant response rating [3, 24] | Plant response rating, Johnsongrass [5, 20]
20: Plant response rating, Corn (corn (Zea mays); [22])
45: Plant response rating, Johnsongrass [5, 22] | Plant response rating, Oilseed Rape [10, 19]
40: Plant response rating, Crabgrass, Large [8, 18] | Plant response rating, Oilseed Rape [10, 22]
35: Plant response rating, Barnyardgrass [3, 18] | Barnyardgrass plant response rating [3, 17] | Crabgrass, Large plant response rating [8, 17] | Plant response rating, Velvetleaf [9, 20]
60: Waterhemp plant response rating [2, 17] | Plant response rating, Barnyardgrass [3, 19] | Plant response rating, Nutsedge, Yellow [11, 20] | Blackgrass plant response rating [13, 24] | Plant response rating, Blackgrass [13, 20]
75: Kochia plant response rating (kochia (Kochia scoparia); [17]) | Plant response rating, Lambsquarters [4, 20] | Plant response rating, Crabgrass, Large [8, 21]
98: Barnyardgrass plant response rating [3, 23] | Plant response rating, Lambsquarters [4, 18] | Johnsongrass plant response rating [5, 23] | Plant response rating, Pigweed [6, 20] | Crabgrass, Large plant response rating [8, 23] | Velvetleaf plant response rating [9, 23] | Plant response rating, Morningglory [12, 19] | Plant response rating, Foxtail, Giant [14, 21] | Plant response rating, Foxtail, Giant [14, 22]
30: Plant response rating, Barnyardgrass [3, 20] | Corn plant response rating (corn (Zea mays); [23])
65: Plant response rating, Velvetleaf [9, 21] | Oilseed Rape plant response rating [10, 17]
80: Plant response rating, Kochia (kochia (Kochia scoparia); [15]) | Plant response rating, Kochia (kochia (Kochia scoparia); [16]) | Plant response rating, Waterhemp [2, 19] | Plant response rating, Barnyardgrass [3, 22] | Plant response rating, Nutsedge, Yellow [11, 22] | Plant response rating, Morningglory [12, 20] | Plant response rating, Blackgrass [13, 21] | Plant response rating, Foxtail, Giant [14, 20]
70: Plant response rating, Barnyardgrass [3, 21] | Plant response rating, Johnsongrass [5, 19] | Plant response rating, Nutsedge, Yellow [11, 21]
55: Plant response rating, Crabgrass, Large [8, 19]
95: Plant response rating, Oat, Wild [1, 15] | Plant response rating, Oat, Wild [1, 16] | Lambsquarters plant response rating [4, 23] | Lambsquarters plant response rating [4, 17] | Plant response rating, Pigweed [6, 21] | Plant response rating, Pigweed [6, 22] | Oilseed Rape plant response rating [10, 23] | Nutsedge, Yellow plant response rating [11, 23] | Morningglory plant response rating [12, 23]
0: Corn plant response rating (corn (Zea mays); [24]) | Plant response rating, Corn (corn (Zea mays); [19]) | Plant response rating, Corn (corn (Zea mays); [20]) | Plant response rating, Wheat [7, 18] | Plant response rating, Wheat [7, 19] | Plant response rating, Wheat [7, 20] | Plant response rating, Wheat [7, 21] | Plant response rating, Wheat [7, 22] | Wheat plant response rating [7, 23] | Wheat plant response rating [7, 17] | Plant response rating, Oilseed Rape [10, 20]
85: Plant response rating, Waterhemp [2, 18] | Plant response rating, Waterhemp [2, 20] | Plant response rating, Waterhemp [2, 21] | Plant response rating, Lambsquarters [4, 22] | Plant response rating, Pigweed [6, 18] | Pigweed plant response rating [6, 17] | Plant response rating, Velvetleaf [9, 22] | Velvetleaf plant response rating [9, 17] | Plant response rating, Oilseed Rape [10, 18] | Nutsedge, Yellow plant response rating [11, 17] | Plant response rating, Morningglory [12, 21] | Blackgrass plant response rating [13, 17] | Foxtail, Giant plant response rating [14, 17]
